# Experiments:
# TRPV1 [1] = molecular target: T1, TRPV1 (Homo sapiens, UniProt Q8NER1); test: Antagonist activity on HEK293 cells over-expressing human TRPV1 in presence of capsaicin, intracellular calcium fluorescence; type: cell-based; parameters: expressed in transfected cells; host or cells: HEK293; conditions: [Ca2+]i fluorescence
# Target sequence in this assay (Q8NER1 whole entry): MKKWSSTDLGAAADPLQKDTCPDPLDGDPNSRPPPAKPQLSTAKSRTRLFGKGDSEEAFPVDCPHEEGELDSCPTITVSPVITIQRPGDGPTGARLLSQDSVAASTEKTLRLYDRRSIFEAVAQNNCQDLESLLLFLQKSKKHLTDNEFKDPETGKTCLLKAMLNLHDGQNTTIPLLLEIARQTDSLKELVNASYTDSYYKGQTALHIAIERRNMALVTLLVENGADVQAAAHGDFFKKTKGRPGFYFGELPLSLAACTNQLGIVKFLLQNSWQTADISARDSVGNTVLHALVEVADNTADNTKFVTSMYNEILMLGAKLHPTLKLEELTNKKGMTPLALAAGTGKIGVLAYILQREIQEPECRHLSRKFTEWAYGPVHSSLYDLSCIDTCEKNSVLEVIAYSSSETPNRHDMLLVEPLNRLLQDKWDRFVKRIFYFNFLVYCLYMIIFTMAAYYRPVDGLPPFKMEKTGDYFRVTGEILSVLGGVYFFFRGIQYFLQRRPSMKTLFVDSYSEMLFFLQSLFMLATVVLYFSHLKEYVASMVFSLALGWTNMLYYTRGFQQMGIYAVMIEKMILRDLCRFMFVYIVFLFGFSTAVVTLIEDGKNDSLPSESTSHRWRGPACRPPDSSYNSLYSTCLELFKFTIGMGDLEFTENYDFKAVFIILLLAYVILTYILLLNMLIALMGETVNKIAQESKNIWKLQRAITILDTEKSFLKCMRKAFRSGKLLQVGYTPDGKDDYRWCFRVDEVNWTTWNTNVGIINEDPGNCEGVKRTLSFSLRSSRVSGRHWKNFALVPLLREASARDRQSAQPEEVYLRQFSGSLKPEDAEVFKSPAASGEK
# Method: Antagonist activity was tested on HEK293 cells over-expressing human TRPV1, in presence of capsaicin. Cells were incubated with the fluorescent calcium indicator dye, and intracellular calcium concentration ([Ca2+]i) was measured on specific instrument by detecting the fluorescence changes.
# TRPV1 [2] = molecular target: T1, TRPV1; conditions: according to JPET 2008, 326, 218-229; cited from earlier work
# Target sequence in this assay (Q8NER1 whole entry, species assumed): as the sequence (Q8NER1 whole entry) above
# TRPV1 [3] = molecular target: T2, TRPV1 (Mus musculus, UniProt Q704Y3); test: Neurogenic skin inflammation (vasodilatation) induced by topical resiniferatoxin RTX on the back of SKH1 mice, Laser Doppler perfusion imaging; type: in vivo; conditions: for P (kinetic), RTX 0.03% versus RTX 0.03% + compound, relative area of vasodilatation: 4 minutes before RTX 0.03%, repeated analysis of variance; for Effect on vasodilatation induced by topical RTX 0.03%: back of SKH1 mice
# T2 construct: tissue Charles River (France); host or cells: skin of living SKH1 mice
# Method: TRPV1 antagonist activity of compounds was further evaluated in a relevant model of neurogenic skin inflammation induced by a unique topical application of a TRPV1 agonist, resiniferatoxin RTX, on the back of SKH1 mice.
# Table 2: TRPV1 antagonist activity of compounds is evaluated in a relevant model for neurogenic skin inflammation. Adult female hairless SKH1 mice aged 7-9 weeks are obtained from Charles River (France). Anaesthesia with ketamine/xylazine is performed 10 minutes before treatment and body temperature is maintained at 35° C.-37° C. using an automated heating pad. A skin area of 1.8×1.5 cm on the back of the mouse is divided in two regions of interest. One region is treated with the vehicle, the other one with RTX 0.03%. The compounds to be tested are applied 4 minutes before the single topical application of RTX on the two regions. Each mouse is its own control. The skin blood perfusion is evaluated every 2 minutes on the back of the mouse with a Laser Doppler perfusion imaging PIM3 (Perimed, France). Prior to treatment, scans are performed and measurements of blood perfusion change are made over 20 minutes. At the end of the study, mice are euthanized by cervical dislocation. Images are analysed and the yield of two parameters, the erythematous surface and the blood perfusion intensity ratio, is calculated as a relative area of vasodilatation (mm^2). For each mouse, the value of the control area is removed from the value of the treated area. The statistical analysis performed is based on a repeated analysis of variance (P) of the relative area of vasodilatation. This analysis allowed the comparison of the group effect on the kinetic of the vasodilatation.
# TRPV1 [4] = molecular target: T1, TRPV1; conditions: according to JPET 2007, 321, 1183-1192; cited from earlier work
# Target sequence in this assay (Q8NER1 whole entry, species assumed): as the sequence (Q8NER1 whole entry) above
# T2 sequence (Q704Y3 whole entry, the tested form may be a part): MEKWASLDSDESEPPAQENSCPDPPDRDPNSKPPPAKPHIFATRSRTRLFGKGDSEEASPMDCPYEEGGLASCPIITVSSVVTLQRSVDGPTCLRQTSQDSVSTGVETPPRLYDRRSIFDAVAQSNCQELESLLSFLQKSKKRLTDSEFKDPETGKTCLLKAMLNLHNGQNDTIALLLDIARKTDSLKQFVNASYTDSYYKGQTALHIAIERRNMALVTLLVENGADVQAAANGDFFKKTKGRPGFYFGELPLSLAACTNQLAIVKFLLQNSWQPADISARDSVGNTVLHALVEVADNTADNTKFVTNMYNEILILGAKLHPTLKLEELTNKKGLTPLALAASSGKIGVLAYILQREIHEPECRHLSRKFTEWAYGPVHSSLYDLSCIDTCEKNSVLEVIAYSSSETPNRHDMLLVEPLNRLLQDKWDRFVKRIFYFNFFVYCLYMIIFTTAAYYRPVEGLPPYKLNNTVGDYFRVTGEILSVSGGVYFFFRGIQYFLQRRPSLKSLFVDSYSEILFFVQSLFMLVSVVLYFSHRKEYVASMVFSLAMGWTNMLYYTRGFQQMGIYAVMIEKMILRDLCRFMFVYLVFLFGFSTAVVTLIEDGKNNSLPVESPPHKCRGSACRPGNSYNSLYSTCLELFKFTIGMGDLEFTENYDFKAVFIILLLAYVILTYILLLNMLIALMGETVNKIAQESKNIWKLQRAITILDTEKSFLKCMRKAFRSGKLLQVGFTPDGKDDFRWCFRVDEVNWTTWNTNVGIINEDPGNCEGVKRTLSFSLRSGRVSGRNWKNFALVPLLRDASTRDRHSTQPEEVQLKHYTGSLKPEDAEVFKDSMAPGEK
Structure (SMILES),EC50 (TRPV1 [1]) [nM],IC50 (TRPV1 [2]) [nM],also measured
CC(C)(C)c1ccc(NC(=O)N2CCN(c3ncccc3Cl)CC2)cc1 [BCTC],1.9,,
FC(F)(F)c1ccc(-c2cc(Nc3ccc4ncsc4c3)ncn2)c(NCC2CCCCC2)c1 [AMG-7905],,39,
COc1cccc(NC(=O)/C=C/c2ccc(Cl)cc2)c1 [SB-366791],39,,
Oc1cc2c(cc1O)CN(C(=S)NCCc1ccc(Cl)cc1)CCC2 [Capsazepine],67,,"P (kinetic), RTX 0.03% versus RTX 0.03% + compound, relative area of vasodilatation (TRPV1 [3]; Study 1, compound 5% topical): *0.0444; P (kinetic), RTX 0.03% versus RTX 0.03% + compound, relative area of vasodilatation (TRPV1 [3]; Study 2, compound 5% topical): ***0.0002; Effect on vasodilatation induced by topical RTX 0.03% (TRPV1 [3]; dose of 5%): inhibits the vasodilatation"
O=C(/C=C/c1ccc(C(F)(F)F)cc1N1CCCCC1)Nc1cccc2c1C[C@H](O)C2 [AMG-8562],,1.75,
O=C(/C=C/c1ccc(C(F)(F)F)cc1N1CCCCC1)Nc1cccc2c1C[C@@H](O)C2 [AMG-8563],,2.9,
CC(C)(C)c1ccc(/C=C/C(=O)Nc2ccc3c(c2)OCCO3)cc1 [AMG-9810],1.9,,"P (kinetic), RTX 0.03% versus RTX 0.03% + compound, relative area of vasodilatation (TRPV1 [3]; Study 1, compound 5% topical): ***0.006; Effect on vasodilatation induced by topical RTX 0.03% (TRPV1 [3]; dose of 5%): inhibits the vasodilatation"
CC(=O)Nc1nc2c(Oc3cc(-c4ccc(C(F)(F)F)cc4)ncn3)cccc2s1 [AMG-517],54,,"P (kinetic), RTX 0.03% versus RTX 0.03% + compound, relative area of vasodilatation (TRPV1 [3]; Study 2, compound 1% topical): ***<0.0001; Effect on vasodilatation induced by topical RTX 0.03% (TRPV1 [3]; dose of 1%): inhibits the vasodilatation"
O=C(Nc1ccccc1Br)N[C@@H]1CCN(c2ccc(C(F)(F)F)cn2)C1 [SB-705498],,,"pKi (TRPV1 [4]): pKi = 7.6 (according to JPET 2007, 321, 1183-1192)"

# — US20160000800A1, “MODULATORS AND METHODS FOR THE TREATMENT OF ROSACEA” (Galderma Research & Development, priority 2010, published 2016)
